Measurements taken from ChEMBL document CHEMBL1156345, “Suillusin, a unique benzofuran from the mushroom Suillus granulatus” (J Nat Prod, 2001).
Converted amounts (≈) assume the structure as drawn. The source made the active and inactive calls. No cut-off for these calls is given here.

Experiments:
[1] = system: Radical scavenging activity; assay: Antioxidant activity assessed as DPPH radical scavenging activity at 100 ug/mL; type: functional
UACC-62 = assay: Cytotoxicity against human UACC62 cells after 48 hrs by SRB assay; type: functional, cell-based; conditions: UACC-62, 48 h
SW-620 = assay: Cytotoxicity against human SW620 cells after 48 hrs by SRB assay; type: functional, cell-based; conditions: SW-620, 48 h
HCT-15 = assay: Cytotoxicity against human HCT15 cells at 30 ug/mL after 48 hrs by SRB assay; type: functional, cell-based
A549 = assay: Cytotoxicity against human A549 cells at 30 ug/mL after 48 hrs by SRB assay; type: functional, cell-based
SK-OV-3 = assay: Cytotoxicity against human SKOV3 cells at 30 ug/mL after 48 hrs by SRB assay; type: functional, cell-based
PC-3 = assay: Cytotoxicity against human PC3 cells at 30 ug/mL after 48 hrs by SRB assay; type: functional, cell-based

Row | Compound | Activity [1] [%] | IC50 (UACC-62) [µg/mL] | IC50 (SW-620) [µg/mL] | Activity (HCT-15) | Activity (A549) | Activity (SK-OV-3) | Activity (PC-3)
1 | COC(=O)[C@@]12Oc3ccc(O)cc3[C@@H]1C(=O)C(O)=C2c1ccc(O)c(O)c1 [SUILLUSIN] | 30 | 12 (≈ 32.4 µM) | 20 (≈ 54 µM) | Active | Active | Active | Active
2 | VITAMIN E | 73 | – | – | – | – | – | –
